How the values were obtained:
[1] = system: Rat; test: concentration in plasma after dosing; details: 10 min; dosed: 2-Hydroxy-4-methoxybenzophenone; 100 mg/kg; oral; Male; F344
[2] = system: Mouse; test: concentration in plasma after dosing; details: 0.25 h; dosed: 2-Hydroxy-4-methoxybenzophenone; 500 mg/kg; oral; Female; B6C3F1
[3] = system: Rat; test: concentration in plasma after dosing; details: 6 h; dosed: 2-Hydroxy-4-methoxybenzophenone; 500 mg/kg; oral; Male; F344
[4] = system: Mouse; test: concentration in plasma after dosing; details: 2 h; dosed: 2-Hydroxy-4-methoxybenzophenone; 500 mg/kg; oral; Male; B6C3F1
[5] = system: Mouse; test: concentration in plasma after dosing; details: 10 min; dosed: 2-Hydroxy-4-methoxybenzophenone; 500 mg/kg; oral; Male; B6C3F1
[6] = system: Rat; test: concentration in plasma after dosing; details: 0.5 h; dosed: alpha-Thujone; 50 mg/kg; oral; Female; Harlan Sprague Dawley
[7] = system: Rat; test: concentration in brain after dosing; details: 2.5 h; dosed: 76231-76-0; 3.0 mg/kg; iv; Female; F344
[8] = system: Rat; test: concentration in plasma after dosing; details: 1.5 h; dosed: alpha-Thujone; 50 mg/kg; oral; Female; Harlan Sprague Dawley
[9] = system: Rat; test: concentration in brain after dosing; details: 10 min; dosed: alpha-Thujone; 25 mg/kg; oral; Male; Harlan Sprague Dawley
[10] = system: Rat; test: concentration in plasma after dosing; details: 3 h; dosed: alpha-Thujone; 50 mg/kg; oral; Female; Harlan Sprague Dawley
[11] = system: Rat; test: concentration in plasma after dosing; details: 0.5 h; dosed: alpha-Thujone; 25 mg/kg; oral; Male; Harlan Sprague Dawley
[12] = system: Rat; test: concentration in plasma after dosing; details: 2 min; dosed: alpha-Thujone; 50 mg/kg; oral; Female; Harlan Sprague Dawley
[13] = system: Rat; test: concentration in brain after dosing; details: 6 h; dosed: alpha-Thujone; 50 mg/kg; oral; Female; Harlan Sprague Dawley
[14] = system: Rat; test: concentration in plasma after dosing; details: 2 min; dosed: alpha-Thujone; 25 mg/kg; oral; Male; Harlan Sprague Dawley
[15] = system: Rat; test: concentration in brain after dosing; details: 5 min; dosed: alpha-Thujone; 50 mg/kg; oral; Female; Harlan Sprague Dawley
[16] = system: rat; test: concentration in blood after dosing; negative times count back from the end of exposure; details: dosed: trichloroethylene, 50 ppm, inhalation, duration: 4 hr, male, Sprague Dawley
[17] = system: Rat; test: concentration in brain after dosing; details: 3 h; dosed: Perfluorohexane-1-sulphonic acid – potassium salt; 16 mg/kg; oral; Female; F344
[18] = system: Rat; test: concentration in liver after dosing; details: 192 h; dosed: Perfluorohexane-1-sulphonic acid – potassium salt; 16 mg/kg; oral; Female; Harlan Sprague Dawley
[19] = system: Rat; test: concentration in kidney after dosing; details: 96 h; dosed: Perfluorohexane-1-sulphonic acid – potassium salt; 16 mg/kg; oral; Female; Harlan Sprague Dawley
[20] = system: Rat; test: concentration in kidney after dosing; details: 528 h; dosed: Perfluorohexane-1-sulphonic acid – potassium salt; 16 mg/kg; oral; Female; F344
[21] = system: Rat; test: concentration in kidney after dosing; details: 3 h; dosed: Perfluorohexane-1-sulphonic acid – potassium salt; 16 mg/kg; oral; Female; Harlan Sprague Dawley
[22] = system: Rat; test: concentration in kidney after dosing; details: 3 h; dosed: Perfluorohexane-1-sulphonic acid – potassium salt; 16 mg/kg; oral; Female; F344
[23] = system: Rat; test: concentration in liver after dosing; details: 3 h; dosed: Perfluorohexane-1-sulphonic acid – potassium salt; 16 mg/kg; oral; Female; F344
[24] = system: Rat; test: concentration in plasma after dosing; details: dosed: Pyridine, 5 mg/kg, iv, Male, F344
[25] = system: Rat; test: concentration in plasma after dosing; details: 5 min; dosed: Pyridine; 10 mg/kg; iv; Male; F344
[26] = system: Rat; test: concentration in plasma after dosing; details: dosed: Pyridine, 25 mg/kg, oral, Male, F344
[27] = system: Rat; test: concentration in plasma after dosing; details: dosed: Methyleugenol, 37 mg/kg, iv, Male, F344
[28] = system: Rat; test: concentration in plasma after dosing; details: dosed: Methyleugenol, 37 mg/kg, oral, Male, F344/N
[29] = system: Rat; test: concentration in plasma after dosing; details: 12 h; dosed: Primidone; 80 mg/kg; oral; Female; F344
[30] = system: Rat; test: concentration in plasma after dosing; details: 0.5 h; dosed: Primidone; 80 mg/kg; oral; Female; Harlan Sprague-Dawley

O=C(c1ccccc1)c1ccc(O)cc1O [2,4-Dihydroxybenzophenone]
Details | concentration in plasma [ng/mL]
[1] | 91
[2] | 2690
[3] | 285
[4] | 318
[5] | 1690

CC(C)[C@]12CC(=O)[C@H](C)[C@H]1C2 [alpha-Thujone]
Details | concentration in brain [ng/g] | concentration in plasma [ng/mL]
[6] | – | 5000
[7] | 15.2 | –
[8] | – | 560
[9] | 731 | –
[10] | – | 303
[11] | – | 176
[12] | – | 33.6
[13] | 165 | –
[14] | – | 18
[15] | 3080 | –

OCC(Cl)(Cl)Cl [trichloroethanol (free)]
[16]
Details | concentration in blood [ng/mL]
0.1894 h | 1660
0.429 h | 1600
0.9471 h | 1580
1.964 h | 1500
3.996 h | 1440
5.928 h | 1510
7.943 h | 1140
9.955 h | 1050
11.95 h | 1030
13.94 h | 1040
15.88 h | 449
17.91 h | 747

[16], during exposure
Details | concentration in blood [ng/mL]
-180 s | 1690
-2.968 h | 427
-1.958 h | 1200
-1.022 h | 1260

O=S(=O)([O-])C(F)(F)C(F)(F)C(F)(F)C(F)(F)C(F)(F)C(F)(F)F.[K+] [Perfluorohexane-1-sulphonic acid – potassium salt]
Details | concentration in brain [ng/g] | concentration in kidney [ng/g] | concentration in liver [ng/g]
[17] | 1090 | – | –
[18] | – | – | 1660
[19] | – | 6720 | –
[20] | – | 10000 | –
[21] | – | 31500 | –
[22] | – | 18100 | –
[23] | – | – | 57000

c1ccncc1 [Pyridine]
concentration in plasma [ng/mL]
Details | 0.05 h | 4 h | 5 min
[24] | 4210 | 2060 | –
[26] | – | 15900 | 7460

Details | concentration in plasma [ng/mL]
[25] | 8970

C=CCc1ccc(OC)c(OC)c1 [Methyleugenol]
concentration in plasma [ng/mL]
Details | 1 h | 2 min | 5 h | 6 h
[27] | – | 59100 | – | 114
[28] | 59.2 | – | 18.6 | –

CCC1(c2ccccc2)C(=O)NCNC1=O [Primidone]
Details | concentration in plasma [ng/mL]
[29] | 15800
[30] | 22900
